According to PMC4450806, “The cytochrome bd-type quinol oxidase is important for survival of Mycobacterium smegmatis under peroxide and antibiotic-induced stress” (Scientific Reports, 2015):

Target: T1, cytochrome bd-type quinol oxidase (cytochrome bd) (Mycolicibacterium smegmatis, UniProt A0QXA8)
T1 construct: gene MSMEG_3233; native enzyme in inverted membrane vesicles of the ΔqcrCAB :: hyg strain (cytochrome bd as the only respiratory branch); with CydB (cytochrome bd subunit)
Assay: NADH-driven oxygen consumption of inverted membrane vesicles (Clark-type electrode), wild-type versus bc1-knockout strain
Format: biochemical

CC(C)=CCC/C(C)=C/CC/C(C)=C/Cc1c(C)[nH]c2ccccc2c1=O [aurachin D]
IC50: ~0.4 µM
